From patent publication US20230340061A1, “PEPTIDES AND METHODS FOR THE TREATMENT OF MULTIPLE SCLEROSIS” (IMCYSE SA, priority 2020, published 2023)

How the values were obtained:
[1] = Oxidoreductase activity, fluorescent assay with FITC labelled peptides; assay type: biochemical; settings: reduction of self-quenched FITC labelled peptides, fluorescence
Text: The peptides of the invention comprise an MHC class II T-cell epitope or NKT cell epitope of MOG with a potential to trigger an immune reaction, and a modified oxidoreductase motif. The reducing activity of the motif sequence in the peptide can be assayed for its ability to reduce a sulfhydryl group such as in the insulin solubility assay wherein the solubility of insulin is altered upon reduction, or with a fluorescence-labelled substrate such as insulin. An example of such assay uses a fluorescent peptide and is described in Tomazzolli et al. (2006) Anal. Biochem. 350, 105-112. Two peptides with a FITC label become self-quenching when they covalently attached to each other via a disulfide bridge. Upon reduction by a peptide in accordance with the present invention, the reduced individual peptides become fluorescent again.
The oxidoreductase activity of the immunogenic peptides is determined using a fluorescent assay described in Tomazzolli et al. (2006) Anal. Biochem. 350, 105-112. Two peptides with a FITC label become self-quenching when they form a covalent disulfide bond. Upon reduction by a peptide in accordance with the present invention, the reduced individual FITC labelled peptides emit fluorescence again. The activity is expressed as the mean of duplicates. The results are expressed in Relative Fluorescent Units (RFU). […]

[2] = system: Experimental Auto-Immune Encephalomyelitis (EAE); experiment: Therapeutic administration in MOG35-55-induced EAE; assay type: in vivo; settings: 30 μg s.c. with alum, days 4, 9, 14, 19, vs Saline group
Method: The study used a total of 48 female C57BL/6 mice (Taconic Biosciences, 9 weeks old on Day 0). Mice were acclimated for 7 days prior to the first injection. Mice were assigned to groups in a balanced manner to achieve similar average weight across the groups at the start of the study.
Dosing of all mice was performed once on each of the days indicated in Table 2, s.c., at a volume of 0.05 mL/site, each mouse receiving injection at two sites, for a total of 0.1 mL/mouse/dosing day. IMCY-0189 or P4 peptide total dose was 30 μg per administration.
Lyophilized immunogenic peptide IMCY-0189 with the sequence […] (SEQ ID NO: 260), comprising an oxidoreductase motif HCPYC (SEQ ID NO: 24), a linker GW, a murine Myelin Oligodendrocyte Glycoprotein (MOG35-55) MHCII T cell epitope […] (SEQ ID NO: 261) and a flanking sequence HLYR (SEQ ID NO: 262) (Smart Bioscience) was solubilized immediately before use. Lyophilized IMCY-0189 was thawed at room temperature for 10 minutes, resuspended in Na Acetate buffer 50 mM NaCl 0.9% pH 5.4 and incubated at room temperature for 10 minutes. Reconstituted peptide was then mixed with Imject™ Alum Adjuvant before injection.
Lyophilized immunogenic peptide P4 with the sequence […] (SEQ ID NO: 27), comprising an oxidoreductase motif KHCPYC (SEQ ID NO: 50), a linker VRY, a human Myelin Oligodendrocyte Glycoprotein (MOG201-212) MHCII T cell epitope […] (SEQ ID NO: 2) and a flanking sequence TLFKK (SEQ ID NO: 263) (Smart Bioscience) was solubilized immediately before use. Lyophilized P4 was thawed at room temperature for 10 minutes, resuspended in Na Acetate buffer 50 mM NaCl 0.9% pH 5.4 and incubated at room temperature for 10 minutes. Reconstituted peptide was then mixed with Imject™ Alum Adjuvant before injection.
EAE was induced in all mice as follows: • Day 0, Hour 0—Immunization with a peptide corresponding to the amino acids 35-55 of MOG (MOG35-55)/CFA • Day 0, Hour 2—Injection of pertussis toxin • Day 1, Hour 0—2nd injection of pertussis toxin (24 hours after initial immunization).
Mice were injected subcutaneously at two sites in the back with the emulsion component (containing MOG35-55) of Hooke Kit™ MOG35-55/CFA Emulsion PTX, catalog number EK-2110 (lot #131, Hooke Laboratories, Lawrence MA). One site of injection was in the area of upper back, approximately 1 cm caudal of the neck line. The second site was in the area of lower back, approximately 2 cm cranial of the base of the tail. The injection volume was 0.1 mL at each site. Each mouse received 200 μg of MOG35-55.
Within 2 hours of the injection of emulsion, and then again 24 hours after the injection of emulsion, the pertussis toxin component of the kit was administered intraperitoneally. The pertussis toxin (lot #1008, Hooke Laboratories) was administered at 90 ng/dose for both injections and the volume of each injection was 0.1 mL.
Animals were scored daily starting from Day 7 to the end of the study. Scoring was performed blind, by a person unaware of both treatment and of previous scores for each mouse. In-between scores were assigned when the clinical signs fell between two above defined scores.
On Day 28, blood was collected from all mice into gel clot activator tubes and allowed to clot at room temperature for ˜30 minutes. Blood is then centrifuged at ˜10000 g for 5 minutes. Serum was transferred into Eppendorf tubes and stored at −80° C. until shipment to Quanterix™. Serum Neurofilament light (NF-L) protein levels were quantified using Simoa® NF-light Advantage kit, a digital immunoassay for the quantitative determination of NF-L in serum, plasma and CSF. The used antibodies (Uman Diagnostics, Umea Sweden) also cross react with murine, bovine and macaque NF-L epitopes and as such, this assay can be used for research with these species. All samples were tested in duplicate at a dilution factor of 40×. […]

autologous LCL = experiment: Cytolytic activity: apoptosis of autologous LCL (Annexin V); assay type: cell-based, human; settings: peptide-loaded labelled autologous LCL co-cultured with P4-specific CD4+ T cell lines from patients MS017 (S7), MS026 (S12), MS028 (S11) and MS029 (S9)
Method: (§1) CD14+ monocytes were isolated from these PBMCs by performing positive immunomagnetic separation with CD14 microbeads (Miltenyi Biotec, 130-050-201) according to the supplier recommendations. CD14+ monocytes were cultured for six days and maturated to generate autologous dendritic cells (mDC). CD19+ B cells were isolated from the CD14- PBMCs fraction by performing positive immunomagnetic separation with CD19 microbeads (Miltenyi Biotec, 130-050-301) according to the supplier recommendations. CD19+ B cells were cultured and immortalized with EBV to generate autologous lymphoblastoid cell lines (LCL).
The cytolytic activity of the antigen specific CD4+ T cells was evaluated by quantifying the apoptosis induced on LCL used as antigen presenting cells. Fluorescently labelled autologous LCL, loaded or not with the peptide (P4), were overnight co-cultured at resting state with specific CD4+ T cells, and LCL apoptosis was quantified by flow cytometry through Annexin V staining. Considering the apoptosis percentage of unloaded LCL, used as control, the percentage of specific apoptosis was calculated as follows

[3] = system: CD4+ T cells of patients with multiple sclerosis; experiment: Surface expression of lytic marker Fas ligand (CD178) by flow cytometry; assay type: cell-based, human; settings: CD4+ cell lines of patients MS017 (S9) and MS020 (S10)
Method: (§2) Naïve CD4+ T cells were also purified from the CD14- PBMCs fraction by performing negative immunomagnetic separation with naïve CD4+ T cell isolation kit (Miltenyi Biotec, 130-094-131) according to the supplier recommendations. Naïve CD4+ T cells were co-cultured with autologous mDC or LCL in the presence of P2 and P4 peptides. The CD4+ T cells were re-stimulated periodically, about every 10-12 days.
(§3) The ability of the peptides to generate antigen specific CD4+ T cells was evaluated by flow cytometry analysis of the TCR induced surface activation marker CD154 (CD40L) expression after overnight co-culture at resting state with autologous LCL without (no peptide) or with the peptides (P2 or P4). The surface expression of the lytic marker Fas ligand (CD178) was also evaluated by flow cytometry analysis after overnight co-culture at resting state with autologous LCL without (no peptide) or with the peptide (P4).

[4] = system: CD4+ T cells of patients with multiple sclerosis; experiment: Cytokine secretion in CD4+ T cell culture supernatants (LEGENDplex Human Th Panel); assay type: cell-based
Text: as §2
The ability of the peptides to induce cytokines secretion in CD4+ T cells culture supernatants was evaluated by flow cytometry analysis after overnight co-culture at resting state with autologous mDC without (no peptide) or with the peptides (P2 or P4). Supernatants were analyzed with the LEGENDplex Human Th Panel (13-plex) (BioLegend, 740721) according to the supplier recommendations.

[5] = system: CD4+ T cells of patients with multiple sclerosis; experiment: Generation of antigen specific CD4+ T cells, CD154 (CD40L) expression by flow cytometry; assay type: cell-based, human; settings: for specific induction of effector cells (CD3+CD4+CD154+): overnight co-culture
Method: PBMCs were isolated from blood samples of patients with multiple sclerosis treated by dimethyl fumarate (DMF) on Lymphoprep density gradients.
as §1, §2, §3

[6] = molecular target: T1, soluble HLA-DRB1*04:01 human MHC II protein (human); experiment: soluble-phase competition vs biotin-tagged control peptide, Eu3+-streptavidin fluorescence (FIG. 3)
T1 construct: Soluble protein purchased from the Benaroya Research Institute; also called HLA-DR4; DR4
Method: (§4) To test the binding of the immunogenic peptides to MHCII molecules, a soluble phase competition assay is performed. […] As binding approaches its equilibrium (18h), biotin-labelled peptide/MHC II complexes are captured, separated from unbound reagents, and quantitatively detected by time-resolved fluorescence (Eu³⁺ streptavidin, Perkin Elmer, Brussels, Belgium). […] Data are processed and plotted to ascertain dose-dependent binding properties of test peptides. All the tests are performed in triplicates.

[7] = molecular target: T2, soluble HLA-DRB1*03:01 human MHC II protein (human); experiment: soluble-phase competition vs biotin-labelled control peptide, Eu3+-streptavidin time-resolved fluorescence
T2 construct: Soluble protein purchased from the Benaroya Research Institute; also called HLA-DR3; DR3

[8] = molecular target: T2, soluble HLA-DRB1*03:01 human MHC II …; experiment: soluble-phase competition vs biotin-tagged control peptide, Eu3+-streptavidin fluorescence (FIG. 2)
Method: as §4

[9] = culture supernatant of MS017 (S12) and MS024 (S20) CD4+ cell lines, P4 vs S-WT epitope peptide
[10] = P4-specific CD4+ cell lines of patients MS024 (S20), MS017 (S9), MS026 (S13), MS028 (S11) and MS029 (S9)

## HCHGCVRYFLRVPCWKI [P6]
[1]
  oxidoreductase activity: displayed oxidoreductase activity

## HCPYCGG-FLRVPCWKI [P7]
[1]
  oxidoreductase activity: displayed oxidoreductase activity

## KHCPYCVRYFLRVPSWKITLFKK [P4]
[2]
  AUC (area under the curve) of EAE scores: statistically significant reduced
  MMS (mean maximal score): statistically significant reduced
  disease onset: postponed
  level of demyelination (anti-MBP stained spinal cord sections): reduced level
  level of inflammation (inflammatory foci, H&E stained spinal cord sections): reduced level
[2]; Day 28
  serum NF-L levels: statistically significant reduced
[2]; EAE score 0-5
  end score: reduced
Autologous LCL
  percentage of specific LCL apoptosis: increase
[3]
  effector cells expressing the lytic marker Fas ligand (CD3+CD4+CD154+FasL+): specific increase
[4]; [9]
  specific secretion of cytokine (IL-5): specific secretion
[4]; culture supernatant of MS017 (S15) CD4+ cell line, P4 vs C-WT epitope peptides
  specific secretion of cytokine (IL-5): specific secretion
[4]; culture supernatant of MS017 (S15), MS024 (S20) and MS026 (S14) CD4+ cell lines
  specific secretion of cytokine (IL-5): specific secretion
[5]; P4-specific CD4+ cell lines of patients MS017 (S14) and MS026 (S13)
  specific induction of effector cells (CD3+CD4+CD154+): specific induction
[5]; [10]
  specific induction of effector cells (CD3+CD4+CD154+): specific induction
[5]; naive CD4+ T cells co-cultured with autologous mDC or LCL in presence of peptide
  generation of peptide-specific CD4+ T cell lines from MS patients: able to generate P4-specific CD4+ T cell lines from eight different MS patients
[5]; patients' CD4+ cell lines, overnight co-culture with autologous LCL with peptide vs no peptide
  frequency of effector cells (CD3+CD4+CD154+): high frequency

## KLHRTFDPHFLRVPSWKITLFK [short S-WT, reference compound]
Autologous LCL
  percentage of specific LCL apoptosis: increase
[4]; [9]
  specific secretion of cytokine (IL-5): specific secretion
[5]; [10]
  specific induction of effector cells (CD3+CD4+CD154+): specific induction

B1: P2 peptide HCPYCVRYFLRVPSWKITLF (peptide)
peptide: HCPYCVRYFLRVPSWKITLF
notes: Synthetic
[6]
  binding result: binds
[7]
  binding result: binds

B2: P3 peptide HCPYCVRYFLRVPCWKITLF (peptide)
peptide: HCPYCVRYFLRVPCWKITLF
notes: Synthetic
[8]
  binding result: binds
[6]
  binding result: binds
